Laboratory results as given in the supplement of paper PMC11208160.

Assay: recombinant UMI read abundance after kanamycin selection (control-corrected) (log10(CPM+1)); higher = more efficient recombination; extreme values may be limits of the assay; sequences stand for … in AGTGCAGAGAAAATCGGCCAGTTTTCTCTGCCTGCAGTCCGCATGCCGTGGGACCCCTTGGGTTCTAACCTGTTGCCTAGATTTATGCAGCGGACTGCCTTTCTCCCAAAGTGATAAACCGG…AGGTTGGTTTCACT; site = the 11-nt donor
Outline: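 Under IPTG (0.07 mM) plus kanamycin, or without selection, Escherichia coli carrying a UMI-tagged donor and donor-binding-loop pair library and a target plasmid for the IS621 bridge recombinase were plated in two replicates. Recombinant UMIs were PCR-amplified across the donor–target junction and sequenced. Counts were converted to CPM, averaged over replicates, scaled by control-derived factors and reported as log10(CPM+1).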
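Also: IS621 bridge recombinase in Escherichia coli cells against a fixed T5 target plasmid.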

First: AGGAATGCATGGACCGGTTTTCCCGGTAATCCGTATTTGCA (site AGGAAGACTTG)
Second: AGGAATGCATGGACCGGTTTTCCCGGTAATCCGTATTTGCA (site AGGAATGCTTG)
The “recombinant UMI read abundance (log10)” value of the first is lower: 0 for the first, 1.74 for the second.

Going from “AGGACGGCATGGACCGGTTTTCCCGGTAATCCGTATTTGCA (site AGGAAGACTTG)” to “AGGACGGCATGGACCGGTTTTCCCGGTAATCCGTATTTGCA (site AGGACGGCTTG)”, the “recombinant UMI read abundance (log10)” value rises from 0 to 2.23.

First: AGGACTACATGGACCGGTTTTCCCGGTAATCCGTATTTGAG (site AGGACTACTAT)
Second: AGGACTACATGGACCGGTTTTCCCGGTAATCCGTATTTGAG (site AGGACTACTCT)
The “recombinant UMI read abundance (log10)” value of the first is lower: 0.00837 for the first, 1.54 for the second.

First: AGGACTACATGGACCGGTTTTCCCGGTAATCCGTATTTGAG (site AGGACTACTGT)
Second: AGGACTACATGGACCGGTTTTCCCGGTAATCCGTATTTGAG (site AGGACTACTTT)
The “recombinant UMI read abundance (log10)” value of the first is lower: 0 for the first, 0.493 for the second.

Going from “AGGACTACATGGACCGGTTTTCCCGGTAATCCGTATTTGAT (site AGGACTACTAT)” to “AGGACTACATGGACCGGTTTTCCCGGTAATCCGTATTTGAT (site AGGACTACTCT)”, the “recombinant UMI read abundance (log10)” value falls from 1.77 to 0.00954.

“AGGACTACATGGACCGGTTTTCCCGGTAATCCGTATTTGAT (site AGGACTACTGT)” and “AGGACTACATGGACCGGTTTTCCCGGTAATCCGTATTTGAT (site AGGACTACTTT)” are within 0.2 log units of each other in “recombinant UMI read abundance (log10)” value: 0 for the first, 0.00536 for the second.

Going from “AGGACTACATGGACCGGTTTTCCCGGTAATCCGTATTTGCT (site AGGACTACTAG)” to “AGGACTACATGGACCGGTTTTCCCGGTAATCCGTATTTGTC (site AGGACTACTGA)”, the “recombinant UMI read abundance (log10)” value falls from 2.5 to 2.

“AGGACTACATGGACCGGTTTTCCCGGTAATCCGTATTTGTC (site AGGACTACTGC)” and “AGGACTACATGGACCGGTTTTCCCGGTAATCCGTATTTGTC (site AGGACTACTGG)” are the same in “recombinant UMI read abundance (log10)” value: 0 for the first, 0 for the second.

First: AGGACTACATGGACCGGTTTTCCCGGTAATCCGTATTTGTC (site AGGACTACTGT)
Second: AGGAGCACATGGACCGGTTTTCCCGGTAATCCGTATTTGCA (site AGGAAGACTTG)
The “recombinant UMI read abundance (log10)” value of the first is higher: 1.37 for the first, 0 for the second.

First: AGGAGCACATGGACCGGTTTTCCCGGTAATCCGTATTTGCA (site AGGAGCACTTG)
Second: AGGAGGCCATGGACCGGTTTTCCCGGTAATCCGTATTTGAG (site AGGAGGCCTCT)
The “recombinant UMI read abundance (log10)” value of the first is higher: 2.37 for the first, 0.233 for the second.

Compared with “AGGATCTCATGGACCGGTTTTCCCGGTAATCCGTATTTGTG (site AGGATCTCTCA)”, “AGGATTTCATGGACCGGTTTTCCCGGTAATCCGTATTTGCG (site AGGATTTCTCG)” is lower in “recombinant UMI read abundance (log10)” value: 2.92 for the first, 1.32 for the second.

Compared with “AGGCAAACATGGACCGGTTTTCCCGGTAATCCGTATTTGTA (site AGGCAAACTTA)”, “AGGCAGACATGGACCGGTTTTCCCGGTAATCCGTATTTGCA (site AGGAAGACTTG)” is lower in “recombinant UMI read abundance (log10)” value: 1.9 for the first, 0.346 for the second.

First: AGGCAGACATGGACCGGTTTTCCCGGTAATCCGTATTTGCA (site AGGCAGACTTG)
Second: AGGCAGACATGGACCGGTTTTCCCGGTAATCCGTATTTGCA (site AGGGAGACTTG)
The “recombinant UMI read abundance (log10)” value of the first is higher: 2.49 for the first, 0.0572 for the second.

Compared with “AGGCAGACATGGACCGGTTTTCCCGGTAATCCGTATTTGCA (site AGGTAGACTTG)”, “AGGCAGACATGGACCGGTTTTCCCGGTAATCCGTATTTGCT (site AGGAAGACTTG)” is lower in “recombinant UMI read abundance (log10)” value: 0.965 for the first, 0 for the second.

Compared with “AGGCAGACATGGACCGGTTTTCCCGGTAATCCGTATTTGCT (site AGGCAGACTAG)”, “AGGCCGGCATGGACCGGTTTTCCCGGTAATCCGTATTTGGC (site AGGCCGGCTGC)” is lower in “recombinant UMI read abundance (log10)” value: 2.13 for the first, 1.07 for the second.

“AGGCCGGCATGGACCGGTTTTCCCGGTAATCCGTATTTGGC (site CGGCCGGCTGC)” and “AGGCCGGCATGGACCGGTTTTCCCGGTAATCCGTATTTGGC (site GGGCCGGCTGC)” are the same in “recombinant UMI read abundance (log10)” value: 0 for the first, 0 for the second.

First: AGGCCGGCATGGACCGGTTTTCCCGGTAATCCGTATTTGGC (site TGGCCGGCTGC)
Second: AGGCCTACATGGACCGGTTTTCCCGGTAATCCGTATTTGAC (site AGGACTACTGT)
The “recombinant UMI read abundance (log10)” value of the first is lower: 0 for the first, 0.528 for the second.

Going from “AGGCCTACATGGACCGGTTTTCCCGGTAATCCGTATTTGAC (site AGGCCTACTGT)” to “AGGCCTACATGGACCGGTTTTCCCGGTAATCCGTATTTGAC (site AGGGCTACTGT)”, the “recombinant UMI read abundance (log10)” value falls from 2.67 to 0.

First: AGGCCTACATGGACCGGTTTTCCCGGTAATCCGTATTTGAC (site AGGTCTACTGT)
Second: AGGCGTTCATGGACCGGTTTTCCCGGTAATCCGTATTTGTG (site AGGCGTTCTCA)
The “recombinant UMI read abundance (log10)” value of the first is lower: 0 for the first, 1.09 for the second.

First: AGGCTTTCATGGACCGGTTTTCCCGGTAATCCGTATTTGAC (site AGACTTTCTGT)
Second: AGGCTTTCATGGACCGGTTTTCCCGGTAATCCGTATTTGAC (site AGCCTTTCTGT)
The “recombinant UMI read abundance (log10)” value of the first is higher: 0.817 for the first, 0.212 for the second.

First: AGGCTTTCATGGACCGGTTTTCCCGGTAATCCGTATTTGAC (site AGGCTTTCTGT)
Second: AGGCTTTCATGGACCGGTTTTCCCGGTAATCCGTATTTGAC (site AGTCTTTCTGT)
The “recombinant UMI read abundance (log10)” value of the first is higher: 0.502 for the first, 0 for the second.

Going from “AGGCTTTCATGGACCGGTTTTCCCGGTAATCCGTATTTGGC (site AGGCTTTCTGC)” to “AGGGATCCATGGACCGGTTTTCCCGGTAATCCGTATTTGAG (site AGGGATCCTCT)”, the “recombinant UMI read abundance (log10)” value falls from 1.61 to 0.635.

First: AGGGCAACATGGACCGGTTTTCCCGGTAATCCGTATTTGTT (site AGGGCAACTAA)
Second: AGGGGTTCATGGACCGGTTTTCCCGGTAATCCGTATTTGTC (site AGGGGTTCTGA)
The “recombinant UMI read abundance (log10)” value of the first is lower: 0.85 for the first, 3.19 for the second.

“AGGGTACCATGGACCGGTTTTCCCGGTAATCCGTATTTGTA (site AGGGTACCTTA)” and “AGGGTTACATGGACCGGTTTTCCCGGTAATCCGTATTTGGG (site AGGGTTACTCC)” are within 0.2 log units of each other in “recombinant UMI read abundance (log10)” value: 0.0065 for the first, 0.175 for the second.

Going from “AGGTACGCATGGACCGGTTTTCCCGGTAATCCGTATTTGCC (site AGGTACGCTGG)” to “AGGTCGGCATGGACCGGTTTTCCCGGTAATCCGTATTTGTA (site AGGTCGGCTTA)”, the “recombinant UMI read abundance (log10)” value falls from 2.36 to 1.01.

“AGGTTACCATGGACCGGTTTTCCCGGTAATCCGTATTTGTG (site AGGTTACCTCA)” and “AGGTTACCATGGACCGGTTTTCCCGGTAATCCGTATTTGTG (site AGGTTCCCTCA)” are within 0.2 log units of each other in “recombinant UMI read abundance (log10)” value: 0.0116 for the first, 0 for the second.

“AGGTTACCATGGACCGGTTTTCCCGGTAATCCGTATTTGTG (site AGGTTGCCTCA)” and “AGGTTACCATGGACCGGTTTTCCCGGTAATCCGTATTTGTG (site AGGTTTCCTCA)” are within 0.2 log units of each other in “recombinant UMI read abundance (log10)” value: 0.00949 for the first, 0.00461 for the second.

“AGGTTCCCATGGACCGGTTTTCCCGGTAATCCGTATTTGTT (site AGGTTCCCTAA)” and “AGGTTCCCATGGACCGGTTTTCCCGGTAATCCGTATTTGTT (site AGGTTCCCTCA)” are within 0.2 log units of each other in “recombinant UMI read abundance (log10)” value: 0 for the first, 0.0252 for the second.

“AGGTTCCCATGGACCGGTTTTCCCGGTAATCCGTATTTGTT (site AGGTTCCCTGA)” and “AGGTTCCCATGGACCGGTTTTCCCGGTAATCCGTATTTGTT (site AGGTTCCCTTA)” are the same in “recombinant UMI read abundance (log10)” value: 0 for the first, 0 for the second.

First: AGGTTCGCATGGACCGGTTTTCCCGGTAATCCGTATTTGTG (site AGGTTCACTCA)
Second: AGGTTCGCATGGACCGGTTTTCCCGGTAATCCGTATTTGTG (site AGGTTCCCTCA)
The “recombinant UMI read abundance (log10)” value of the first is higher: 0.217 for the first, 0.015 for the second.

First: AGGTTCGCATGGACCGGTTTTCCCGGTAATCCGTATTTGTG (site AGGTTCGCTCA)
Second: AGGTTCGCATGGACCGGTTTTCCCGGTAATCCGTATTTGTG (site AGGTTCTCTCA)
The “recombinant UMI read abundance (log10)” value of the first is higher: 0.666 for the first, 0 for the second.

Going from “AGGTTGACATGGACCGGTTTTCCCGGTAATCCGTATTTGCG (site AGGTTGACTCG)” to “AGTAAATCATGGACCGGTTTTCCCGGTAATCCGTATTTGGG (site GCCGTTCCTGA)”, the “recombinant UMI read abundance (log10)” value falls from 2 to 0.

First: AGTAACACATGGACCGGTTTTCCCGGTAATCCGTATTTGCA (site AGGAAGACTTG)
Second: AGTAACACATGGACCGGTTTTCCCGGTAATCCGTATTTGCA (site AGTAACACTTG)
The “recombinant UMI read abundance (log10)” value of the first is lower: 0 for the first, 2.13 for the second.

First: AGTAACGCATGGACCGGTTTTCCCGGTAATCCGTATTTGCA (site AGTAACGCTTG)
Second: AGTACCACATGGACCGGTTTTCCCGGTAATCCGTATTTGTT (site AGTACCACTAA)
The “recombinant UMI read abundance (log10)” value of the first is higher: 2.29 for the first, 0.274 for the second.

Compared with “AGTACGTCATGGACCGGTTTTCCCGGTAATCCGTATTTGTT (site AGTACGTCTAA)”, “AGTACGTCATGGACCGGTTTTCCCGGTAATCCGTATTTGTT (site CGTACGTCTAA)” is higher in “recombinant UMI read abundance (log10)” value: 0.258 for the first, 0.552 for the second.

“AGTACGTCATGGACCGGTTTTCCCGGTAATCCGTATTTGTT (site GGTACGTCTAA)” and “AGTACGTCATGGACCGGTTTTCCCGGTAATCCGTATTTGTT (site TGTACGTCTAA)” are within 0.2 log units of each other in “recombinant UMI read abundance (log10)” value: 0.198 for the first, 0.212 for the second.

First: AGTCCCACATGGACCGGTTTTCCCGGTAATCCGTATTTGAA (site AGTCCCACTTT)
Second: AGTCCGCCATGGACCGGTTTTCCCGGTAATCCGTATTTGGG (site AGTCCGCCTCC)
The “recombinant UMI read abundance (log10)” value of the first is higher: 0.752 for the first, 0.015 for the second.

With “AGTCGAGCATGGACCGGTTTTCCCGGTAATCCGTATTTGAG (site AGTCGAGCTCT)” the “recombinant UMI read abundance (log10)” value was 1.6.
